# Columns and labels:
# Type in all cases: functional
# [1] = test system: Mycobacterium tuberculosis; test: Antitubercular activity against multidrug-resistant Mycobacterium tuberculosis assessed as parasite growth inhibition by REMA method
# [2] = test system: Mycobacterium tuberculosis; test: Ratio of isoniazid IC50 to compound IC50 for Isoniazid-resistant Mycobacterium tuberculosis by REMA method
# [3] = test system: Mycobacterium tuberculosis; test: Antitubercular activity against Isoniazid-resistant Mycobacterium tuberculosis assessed as parasite growth inhibition by REMA method
# [4] = test system: Mycobacterium tuberculosis; test: Antitubercular activity against Rifampicin-resistant Mycobacterium tuberculosis assessed as parasite growth inhibition by REMA method
SMILES,MIC90 [1] [µM],Ratio [2],MIC90 [3] [µM],MIC90 [4] [µM]
O=C1NC(c2c[nH]c3ccc(I)cc23)Nc2ccccc21 (stereo not drawn),20.7,>12,10.3,5.2
NNC(=O)c1ccncc1 [ISONIAZID],117,,467,
O=C1NC(c2c[nH]c3ccc(Br)cc23)Nc2ccccc21 (stereo not drawn),188,,46.9,46.9
CO[C@H]1/C=C/O[C@@]2(C)Oc3c(C)c(O)c4c(O)c(c(/C=N/N5CCN(C)CC5)c(O)c4c3C2=O)NC(=O)/C(C)=C\C=C\[C@H](C)[C@H](O)[C@@H](C)[C@@H](O)[C@@H](C)[C@H](OC(C)=O)[C@@H]1C [RIFAMPIN],38.9,,0.07,311
CC[C@@H](CO)NCCN[C@@H](CC)CO [ETHAMBUTOL],626,,,

# Reference: ChEMBL document CHEMBL3425465, “Synthesis, antimalarial and antitubercular activities of meridianin derivatives” (Eur J Med Chem, 2015)
